Marks after values point to notes of the source that are not given here.
Assay: 13-week double-blind, randomized clinical trial: office systolic blood pressure (SBP) in osteoarthritic patients with hypertension treated with renin-angiotensin system blockers
Format: in vivo, human
Conditions: for Difference in mean changes of SBP vs placebo / mean change in systolic blood pressure (SBP) vs baseline, mean ± SE / Difference in mean changes of SBP vs naproxen 500 mg: 13-week study; for mean change in systolic blood pressure (SBP) vs baseline, mean ± SE: osteoarthritic hypertensive patients on RAS blockers alone or with a diuretic; for blood pressure elevation / BP destabilization (result in words): osteoarthritic hypertensive patients treated with at least a renin-angiotensin system blocking agent
Method: Effects of 4-(nitrooxy)butyl(2S)-2-(6-methoxy-2-naphthyl)propanoate (naproxcinod) and naproxen on systolic blood pressure (SBP).
The effects of two twice daily drug regimens (375 mg bid and 750 mg bid) of 4-(nitrooxy)butyl(2S)-2-(6-methoxy-2-naphthyl)propanoate (naproxcinod) on systolic blood pressure (SBP) vs. naproxen and placebo were studied in a 13-week double-blind, randomized clinical trial involving 207 osteoarthritic patients and hypertension treated with renin-angiotensin system blockers alone or in combination with a diuretic.
Patients were sequentially randomized in a 1:1:1:1 ratio using a validated remote automated system to receive for the 13-week study treatment period one of 4 treatment groups: • naproxcinod 750 mg twice daily, • naproxcinod 375 mg twice daily, • naproxen 500 mg (equimolar dose of naproxcinod 750 mg) twice daily, or • placebo twice daily.
The office SBP was measured in a standardized fashion by mercury column or aneroid device in supine position, at rest, at baseline and 2, 6, and 13 weeks after study treatment initiation. SBP measurements were to be performed 2 to 4 hours post-morning dose.
The comparability of the patients in the 4 treatment groups was determined from the demographic data and baseline BP values.

SMILES	Difference in mean changes of SBP vs placebo (500 mg twice daily)	mean change in systolic blood pressure (SBP) vs baseline, mean ± SE (500 mg twice daily)	Difference in mean changes of SBP vs naproxen 500 mg (375 mg twice daily)	Difference in mean changes of SBP vs placebo (375 mg twice daily)	mean change in systolic blood pressure (SBP) vs baseline, mean ± SE (375 mg twice daily)	Difference in mean changes of SBP vs naproxen 500 mg (750 mg twice daily)	Difference in mean changes of SBP vs placebo (750 mg twice daily)	mean change in systolic blood pressure (SBP) vs baseline, mean ± SE (750 mg twice daily)	blood pressure elevation / BP destabilization (result in words)	blood pressure elevation / BP destabilization (result in words) (listed as 4-(nitrooxy)butyl(2S)-2-(6-methoxy-2-naphthyl)propanoate)
COc1ccc2cc([C@H](C)C(=O)O)ccc2c1 [naproxen, reference compound]	6.1** mmHg	1.5 ± 1.9 mmHg	–	–	–	–	–	–	–	–
COc1ccc2cc([C@H](C)C(=O)OCCCCO[N+](=O)[O-])ccc2c1 [naproxcinod, 4-(nitrooxy)butyl(2S)-2-(6-methoxy-2-naphthyl)propanoate]	–	–	−4.2 mmHg	1.9 mmHg	−2.7 ± 1.7 mmHg	−6.5 mmHg	−0.4* mmHg	−5.0 ± 1.7 mmHg	less BP destabilization compared to naproxen	does not induce blood pressure elevation

From patent US20100240745A1, “METHOD OF TREATMENT OF INFLAMMATION IN HYPERTENSIVE PATIENTS” (NICOX S.A., priority 2009, published 2010)
